Measured values as given in patent US5846545A, “Targeted delivery of cyclopropylbenzindole-containing cytotoxic drugs” (Immunogen, Inc., priority 1995, dated 1998).

What was measured:
[1] = in vitro; cited from earlier work
[2] = single i.v. dose of 12.5 μg/kg; cited from earlier work
[3] = system: human small cell lung cancer cell line SW2; assay: In vitro cytotoxicity to SW2 cells, 24 h exposure, growth back-extrapolation assay; format: cell-based; details: 24 h exposure to the drug, read-out: IC50, free drug, SW2 cells
Description: Disulfide-containing and mercapto-containing analogues and derivatives of CC-1065 of the invention can be evaluated for their ability to suppress proliferation of various unwanted cell lines in vitro. For example, cell lines such as the human epidermoid carcinoma line KB, the human breast tumor line SKBR3, and the Burkitt's lymphoma line Namalwa can easily be used for the assessment of cytotoxicity of these compounds. Cells to be evaluated can be exposed to the compounds for 24 hours and the surviving fractions of cells measured in direct assays by known methods. IC50 values can then be calculated from the results of the assays.
Cytotoxicity of the analogues and derivatives of CC-1065 and their conjugates with cell binding agents to non-adherent cell lines such as Namalwa and SW2 can be measured by back-extrapolation of cell proliferation curves as described in Goldmacher et al, 135 J. Immunol. […] Cytotoxicity of these compounds to adherent cell lines such as A-375 and SCaBER can be determined by clonogenic assays as described in Goldmacher et al, 102 J. Cell Biol. 1312-1319 (1986). […]
In vitro cytotoxicity of N901-SS-Drug 7. The in vitro cytotoxicity of a disulfide-linked conjugate of the mono-indolyl CPI derivative 7 with the antibody N901, containing on the average 3.3 drug molecules per antibody molecule, was measured on antigen positive SW2 cells and antigen negative Namalwa cells. […]

P388 leukemia = details: cited from earlier work

SMILES | fold more cytotoxic than methotrexate, daunorubicin and vincristine [1] | delayed hepatotoxicity leading to death, time of death [2] | IC50 [3] | treated mice surviving beyond 30 days (P388 leukemia; 0.05 mg/kg i.p. on days 1, 5 and 9) | increase in life span over untreated controls (P388 leukemia; optimal dose 0.05 mg/kg i.p. on days 1, 5 and 9)
COc1c(O)c2c(c3cc(C(=O)N4CCc5c4c(O)c(OC)c4[nH]c(C(=O)N6CC7CC78C6=CC(=O)c6[nH]cc(C)c68)cc54)[nH]c13)CCN2C(N)=O (centres unmarked) [CC-1065] | 100 to 1000 fold | 50 days | 0.2 nM | – | –
Cc1c[nH]c2c1[C@@]13C[C@@H]1CN(C(=O)c1cc4cc(NC(=O)c5cc6ccccc6o5)ccc4[nH]1)C3=CC2=O [U-73975] | – | – | – | 1 out of 6 | 170%
